Results: publication PMC8597757, “Pharmacokinetic and Safety Profile of the Novel HIV Nonnucleoside Reverse Transcriptase Inhibitor MK-8507 in Adults without HIV” (Antimicrobial Agents and Chemotherapy, 2021)
“Also recorded” adds a separate entry of the source. Where two headings read alike, the source gives them in different places.

How the values were obtained:
[1] = Safety and tolerability in phase 1 studies; format: in vivo, human
Description: The safety and tolerability of MK-8507 were assessed by clinical evaluation, including vital signs, 12-lead electrocardiograms, laboratory safety tests, and clinical monitoring of AEs.

[2] = Cross-study formulation comparison, 400 mg tablet vs suspension; format: in vivo, human
Description: Statistical analyses were performed using SAS software version 9.3 (SAS Institute Inc., Cary, NC, USA). […] The least-squares geometric mean (GM) and corresponding 95% CIs obtained from the models were exponentiated to provide estimates for the population GMs and CIs on the original scales. To assess the effect of food, 90% CIs were calculated for the GMR (fed/fasted) of MK-8507 AUC0-∞, Cmax, and C168hr. […] The point estimates and the corresponding 95% CIs were obtained from the model for GM of each formulation; the GMR and 90% CIs comparing tablet to suspension were estimated using the model.

[3] = tested on: common NNRTI resistance-associated variants; settings: cited from earlier work
[4] = Multiple-dose (once weekly for 3 weeks) plasma pharmacokinetics of MK-8507 tablet; format: in vivo, human; settings: for AUC(0-t) / concentration at 168 h / Cmax / Tmax / half-life: human, plasma, oral; for AUC(0-t): read-out: AUC0–168 (geometric mean [95% CI]); for concentration at 168 h: read-out: C168hr (geometric mean [95% CI]); for Cmax: read-out: Cmax (geometric mean [95% CI])
Description: MK-8507 in plasma was extracted by protein precipitation and analyzed by reversed-phase chromatographic separation coupled with tandem mass spectrometric detection by Merck & Co., Inc. (West Point, PA, USA). The liquid chromatography-tandem mass spectrometric (LC-MS/MS) system consisted of a Waters Acquity ultraperformance liquid chromatography system (Waters Corporation, Milford, MA, USA) employing a turbo ionspray interface in the negative ion mode. The lower limit of quantitation was 1.0 ng/mL (2.03 nM) with a linear calibration range from 1.0 to 1000 ng/mL. The mean intrarun accuracy was 94.8 to 113% (precision, ≤6.2% coefficient of variation [CV]), and the mean interrun accuracy was 94.4 to 103.0% (precision, ≤8.6% CV). […] The AUC0-168hr and […] group was not statistically significant at the 0.05 level and was therefore omitted from the final model. An overall slope was estimated across all groups.

[5] = tested on: HIV-1; assay: PK target of Ctrough >=6 x IC50 (in vitro potency); settings: Human immunodeficiency virus 1; Ctrough target expected to achieve antiviral efficacy; meta-analysis ref 20; read-out: 6 × IC50 threshold (PK target for C168hr)
Description: The plasma PK profile of MK-8507 is supportive of QW administration. Following oral administration, MK-8507 is readily absorbed, with a Tmax of ∼2 to 7 h followed by a biphasic decline in plasma concentration. […] Concentration at trough is the PK parameter generally associated with antiviral efficacy of HIV treatment ([20][–][23]). Based on a meta-analysis of Ctrough normalized by in vitro potency and viral load data from other NNRTIs ([20]), a PK target of Ctrough ≥6 × 50% inhibitory concentration (IC50) is a threshold expected to achieve antiviral efficacy as part of combination therapy. […] These PK results support further development of MK-8507 as a QW oral agent for treatment of HIV administered as part of a complete treatment regimen together with islatravir.

[6] = 100 mg tablet once weekly for 3 weeks, n=6
[7] = 200 mg tablet once weekly for 3 weeks, n=5/6
[8] = 400 mg tablet once weekly for 3 weeks, n=6
[9] = 100 mg, 100 mg tablet once weekly, wk 1, n=6
[10] = 100 mg, 100 mg tablet once weekly, wk 3, n=6
[11] = 200 mg, 200 mg tablet once weekly, wk 1, n=5/6
[12] = 200 mg, 200 mg tablet once weekly, wk 3, n=5
[13] = 400 mg, 400 mg tablet once weekly, wk 1, n=6
[14] = 400 mg, 400 mg tablet once weekly, wk 3, n=6

Q: With `N#Cc1cc(Cl)cc(Oc2c(C(F)(F)F)ncn(Cc3cc(C(F)(F)F)c(=O)[nH]n3)c2=O)c1` [MK-8507] as the molecule, how does the “changes in clinical laboratory assessments, vital signs, electrocardiograms” value ([1]; both studies) read?
A: no clinically meaningful changes; also recorded: No clinically meaningful relationships were observed

Q: What about the “discontinuation due to an adverse experience” value ([1]; both studies) of the same molecule?
A: no participants discontinued

Q: And the “seriousness and intensity of adverse events” value ([1]; both studies)?
A: nonserious and mild in intensity

Q: What about the tolerability ([1]; single and multiple QW doses) of the same molecule?
A: generally well tolerated

Q: What about the participants with cough ([1]; study 1) of the same molecule?
A: 3

Q: And the participants with headache ([1]; study 1)?
A: 4

Q: And the participants with myalgia ([1]; study 1)?
A: 2

Q: And the participants with rhinorrhea ([1]; study 1)?
A: 2

Q: And the “AEs considered related to MK-8507” value ([1]; study 1, single dose)?
A: none

Q: And the “total nonserious AEs” value ([1]; study 1, single oral dose of MK-8507)?
A: 38

Q: And the “AEs considered related to MK-8507” value ([1]; study 2, multiple doses)?
A: none

Q: What about the “total nonserious AEs” value ([1]; study 2, multiple doses of MK-8507) of the same molecule?
A: 13

Q: And the “AEs considered related to MK-8507” value ([1]; study 2, single doses (decreased appetite))?
A: One

Q: What about the “total nonserious AEs” value ([1]; study 2, single doses of MK-8507) of the same molecule?
A: 10

Q: And the “reduction of Cmax, tablet compared to suspension” value ([2]; 400-mg dose)?
A: 21%

Q: And the “GMR (90% CI) tablet/suspension, C168hr” value ([2]; 400-mg single dose)?
A: 0.93 (0.66, 1.29)

Q: And the “in vitro activity against common NNRTI resistance-associated variants” value [3]?
A: demonstrated in vitro activity

Q: And the “GMR (accumulation ratio, wk 3/wk 1 [90% CI]) of AUC0–168” value [4, 6]?
A: 1.18 (1.12–1.25)

Q: What about the “GMR (accumulation ratio, wk 3/wk 1 [90% CI]) of C168hr” value [4, 6] of the same molecule?
A: 1.14 (0.87–1.50)

Q: And the “GMR (accumulation ratio, wk 3/wk 1 [90% CI]) of Cmax” value [4, 6]?
A: 1.12 (0.96–1.30)

Q: What about the “GMR (accumulation ratio, wk 3/wk 1 [90% CI]) of AUC0–168” value [4, 7] of the same molecule?
A: 1.23 (1.16–1.31)

Q: And the “GMR (accumulation ratio, wk 3/wk 1 [90% CI]) of C168hr” value [4, 7]?
A: 1.22 (0.90–1.65)

Q: What about the “GMR (accumulation ratio, wk 3/wk 1 [90% CI]) of Cmax” value [4, 7] of the same molecule?
A: 1.15 (0.98–1.36)

Q: And the “GMR (accumulation ratio, wk 3/wk 1 [90% CI]) of AUC0–168” value [4, 8]?
A: 1.23 (1.16–1.31)

Q: What about the “GMR (accumulation ratio, wk 3/wk 1 [90% CI]) of C168hr” value [4, 8] of the same molecule?
A: 1.21 (0.92–1.59)

Q: And the “GMR (accumulation ratio, wk 3/wk 1 [90% CI]) of Cmax” value [4, 8]?
A: 1.06 (0.91–1.23)

Q: What about the “accumulation with multiple dosing” value ([4]; QW over 3 weeks, 100-mg, 200-mg, 400-mg doses) of the same molecule?
A: minimal accumulation; also recorded: modest accumulation

Q: And the “accumulation GMR (day 36, day 22), C168hr” value ([4]; QW over 3 weeks, 100-mg, 200-mg, 400-mg doses, range)?
A: 1.14 to 1.22

Q: And the AUC(0-t) [4, 9]?
A: 157 µM·h

Q: What about the concentration at 168 h [4, 9] of the same molecule?
A: 320 nM

Q: And the Cmax [4, 9]?
A: 2940 nM

Q: What about the Tmax ([4]; 100 mg, 100 mg tablet once weekly, wk 1, n=6, read-out: Tmax (median [min, max])) of the same molecule?
A: 3 h

Q: And the concentration at 168 h ([4]; 100 mg, 100 mg tablet once weekly, wk 2, n=6)?
A: 390 nM

Q: What about the AUC(0-t) [4, 10] of the same molecule?
A: 185 µM·h

Q: And the half-life ([4]; 100 mg, 100 mg tablet once weekly, wk 3, n=6, read-out: Apparent terminal t½ (geometric mean [%GVC]) (converted))?
A: 66.7 h

Q: What about the concentration at 168 h [4, 10] of the same molecule?
A: 370 nM

Q: What about the Cmax [4, 10] of the same molecule?
A: 3290 nM

Q: What about the Tmax ([4]; 100 mg, 100 mg tablet once weekly, wk 3, n=6, read-out: Tmax (median [min, max])) of the same molecule?
A: 3.03 h

Q: And the AUC(0-t) [4, 11]?
A: 285 µM·h

Q: What about the concentration at 168 h [4, 11] of the same molecule?
A: 590 nM

Q: What about the Cmax [4, 11] of the same molecule?
A: 4870 nM

Q: What about the Tmax ([4]; 200 mg, 200 mg tablet once weekly, wk 1, n=5/6, read-out: Tmax (median [min, max])) of the same molecule?
A: 5 h

Q: What about the concentration at 168 h ([4]; 200 mg, 200 mg tablet once weekly, wk 2, n=5) of the same molecule?
A: 700 nM

Q: What about the AUC(0-t) [4, 12] of the same molecule?
A: 352 µM·h

Q: What about the half-life ([4]; 200 mg, 200 mg tablet once weekly, wk 3, n=5, read-out: Apparent terminal t½ (geometric mean [%GVC]) (converted)) of the same molecule?
A: 74.2 h

Q: What about the concentration at 168 h [4, 12] of the same molecule?
A: 720 nM

Q: And the Cmax [4, 12]?
A: 5610 nM

Q: What about the Tmax ([4]; 200 mg, 200 mg tablet once weekly, wk 3, n=5, read-out: Tmax (median [min, max])) of the same molecule?
A: 4.01 h

Q: What about the AUC(0-t) [4, 13] of the same molecule?
A: 563 µM·h

Q: And the concentration at 168 h [4, 13]?
A: 1230 nM

Q: And the Cmax [4, 13]?
A: 10800 nM

Q: And the Tmax ([4]; 400 mg, 400 mg tablet once weekly, wk 1, n=6, read-out: Tmax (median [min, max]))?
A: 4 h

Q: What about the concentration at 168 h ([4]; 400 mg, 400 mg tablet once weekly, wk 2, n=6) of the same molecule?
A: 1110 nM

Q: What about the AUC(0-t) [4, 14] of the same molecule?
A: 694 µM·h

Q: And the half-life ([4]; 400 mg, 400 mg tablet once weekly, wk 3, n=6, read-out: Apparent terminal t½ (geometric mean [%GVC]) (converted))?
A: 73.1 h

Q: What about the concentration at 168 h [4, 14] of the same molecule?
A: 1490 nM

Q: What about the Cmax [4, 14] of the same molecule?
A: 11500 nM

Q: What about the Tmax ([4]; 400 mg, 400 mg tablet once weekly, wk 3, n=6, read-out: Tmax (median [min, max])) of the same molecule?
A: 4 h

Q: And the half-life ([4]; 400 mg, 100, 200, 400 mg tablet once weekly, range across doses, read-out: geometric mean apparent t1/2)?
A: 67 to 74 h

Q: And the Tmax ([4]; 400 mg, 100, 200, 400 mg tablet once weekly, range across doses, read-out: median time of peak concentration postdose)?
A: 3 to 5 h

Q: And the IC50 [5]?
A: 0.148 µg/mL

Q: And the PK target concentration for C168hr (6 × IC50) [5]?
A: 0.3 µM
